Tests used:
diabetic macular edema = conditions: topical ocular administration, Japanese patients with diabetic macular edema; cited from earlier work
[1] = system: laser-induced choroidal neovascularization (CNV); assay: Laser-induced CNV in the mouse, oral gavage, prevention paradigm; assay type: in vivo
[2] = system: existing laser-induced choroidal neovascularization (CNV); assay: Laser-induced CNV in the mouse, oral gavage, regression paradigm; assay type: in vivo; conditions: 3 mg/kg/day p.o. from day 7 after laser
[3] = system: preretinal neovascularization (NV); assay: Rat OIR model, oral gavage; assay type: in vivo
Protocol: Immediately following euthanasia, retinas from all rat pups were harvested, fixed in 10% neutral buffered formalin for 24 hours, subjected to ADPase staining, and fixed onto slides as whole mounts. Digital images were acquired from each retinal flat mount that was adequately prepared. Computerized image analysis was used to obtain a NV clockhour score from each readable sample. Each clockhour out of 12 total per retina was assessed for the presence or absence of preretinal NV. Statistical comparisons using median scores for NV clockhours from each treatment group were utilized in nonparametric analyses. Each noninjected pup represented one NV score by taking the average value of both eyes and was used in comparisons against each dosage group. Because the pups were randomly assigned and no difference was observed between oxygen-exposed control pups from all litters, the NV scores were combined for all treatment groups. P≦0.05 was considered statistically significant. METHODS: Pregnant Sprague-Dawley rats were received at 14 days gestation and subsequently gave birth on Day 22±1 of gestation. Immediately following parturition, pups were pooled and randomized into separate litters (n=17 pups/litter), placed into separate shoebox cages inside oxygen delivery chamber, and subjected to an oxygen-exposure profile from Day 0 to Day 14 postpartum. Litters were then placed into room air from Day 14/0 through Day 14/6 (days 14-20 postpartum). Additionally on Day 14/0, each pup was randomly assigned as oxygen-exposed controls, vehicle treated, or drug-treated at 1.5, 5, 10 mg/kg, p.o., BID. At Day 14/6 (20 days postpartum), all animals in both studies were euthanized and retina whole mounts were prepared as described in Example 1 above.

[4] = system: diabetes-induced retinal vascular permeability; assay: Diabetes-induced retinal vascular permeability in the STZ rat model, oral gavage; assay type: in vivo
Protocol: METHODS: Diabetes was induced in male Long-Evans rats with 65 mg/kg streptozotocin (STZ) after an overnight fast. Upon confirmation of diabetes (blood glucose >250 mg/dl), treatment was initiated by oral gavage. Non-diabetic (NDM) and diabetic (DM) rats received oral gavage of either vehicle or RTK inhibitor at 1.5 or 5 mg/kg/d BID. After 2 weeks, jugular vein catheters were implanted 1 day prior to experimentation for the infusion of indicator dye. Retinal vascular permeability, RVP, was measured using Evan's blue albumin permeation (45 mg/kg) after a 2 hour circulation period.

[5] = system: preretinal neovascularization (NV); assay: Rat model of oxygen-induced retinopathy (OIR), single intravitreal injection; assay type: in vivo; conditions: for % Inhibition (vs. vehicle-injected eye) of preretinal NV / Median NV (clockhour score): 5 μl intravitreal injection; for % Inhibition (vs. vehicle-injected eye) of preretinal NV: Day 14/6
Source text: METHODS: Pregnant Sprague-Dawley rats were received at 14 days gestation and subsequently gave birth on Day 22±1 of gestation. Immediately following parturition, pups were pooled and randomized into separate litters (n=17 pups/litter), placed into separate shoebox cages inside oxygen delivery chamber, and subjected to an oxygen-exposure profile from Day 0-14 postpartum. Litters were then placed into room air from Day 14/0 through Day 14/6 (days 14-20 postpartum). Additionally on Day 14/0, each pup was randomly assigned as an oxygen-exposed control or into various treatment groups. For those randomized into an injection treatment group: one eye received a 5 μl intravitreal injection of 0.1%, 0.3%, 0.6%, or 1% RTKi and the contralateral eye received a 5 μl intravitreal injection of vehicle. At Day 14/6 (20 days postpartum), all animals in both studies were euthanized. Immediately following euthanasia, retinas from all rat pups were harvested, fixed in 10% neutral buffered formalin for 24 hours, subjected to ADPase staining, and fixed onto slides as whole mounts. Digital images were acquired from each retinal flat mount that was adequately prepared. Computerized image analysis was used to obtain a NV clockhour score from each readable sample. Each clockhour out of 12 total per retina was assessed for the presence or absence of preretinal NV. Statistical comparisons using median scores for NV clockhours from each treatment group were utilized in nonparametric analyses. Each noninjected pup represented one NV score by taking the average value of both eyes and was used in comparisons against each dosage group. Because the pups were randomly assigned and no difference was observed between oxygen-exposed control pups from all litters, the NV scores were combined for all treatment groups. P≦0.05 was considered statistically significant.

[6] = system: laser-induced choroidal neovascularization (CNV); assay: Laser-induced choroidal neovascularization (CNV) in the mouse, prevention, intravitreal injection; assay type: in vivo
Protocol: (§1) METHODS: CNV was generated by laser-induced rupture of Bruch's membrane. Briefly, 4 to 5 week old male C57BL/6J mice were anesthetized using intraperitoneal administration of ketamine hydrochloride (100 mg/kg) and xylazine (5 mg/kg) and the pupils of both eyes dilated with topical ocular instillation of 1% tropicamide and 2.5% Mydfin®. One drop of topical cellulose (Gonioscopic®) was used to lubricate the cornea. A hand-held cover slip was applied to the cornea and used as a contact lens to aid visualization of the fundus. Three to four retinal burns were placed in randomly assigned eye (right or left eye for each mouse) using the Alcon 532 nm EyeLite laser with a slit lamp delivery system. The laser burns were used to generate a rupture in Bruch's membrane, which was indicated opthalmoscopically by the formation of a bubble under the retina. Only mice with laser burns that produced three bubbles per eye were included in the study. Burns were typically placed at the 3, 6, 9 or 12 o'clock positions in the posterior pole of the retina, avoiding the branch retinal arteries and veins.
Each mouse was randomly assigned into one of the following treatment groups: noninjected controls, sham-injected controls, vehicle-injected mice, or one of three RTKi-injected groups. […]

[7] = system: existing laser-induced choroidal neovascularization (CNV); assay: Regression of existing laser-induced CNV in the mouse, intravitreal injection at 7 days post-laser; assay type: in vivo
Protocol: as §1, with “veins. […]” for “veins.”
METHODS: CNV was generated by laser-induced rupture of Bruch's membrane as described above in Example 3. […] Choroidal flat mounts were analyzed as described above in Example 3.

exudative AMD = conditions: Phase III, patients treated, at 24 months, up to; cited from earlier work

Molecule: CC(C)NCC(O)COc1ccc(CCOCC2CC2)cc1 (centres unmarked) [betaxolol]
- effect on vision (in words) (diabetic macular edema): stabilized vision

Molecule: Cc1ccc(F)c(NC(=O)Nc2ccc(-c3cccc4[nH]nc(N)c34)cc2)c1 [Compound 86, N-[4-[3-amino-1H-indazol-4-yl]phenyl]-N′-(2-fluoro-5-methylphenyl)urea]
- inhibition of CNV (in words) ([1]; 20 mg/kg/d p.o., prevention paradigm): complete inhibition of CNV
- effect on laser-induced CNV (in words, FIG. 6) ([1]; oral gavage): inhibits laser-induced choroidal neovascularization (CNV)
- regression of existing CNV (in words) [2]: did not show a significant regression of existing CNV
- % Inhibition (vs vehicle-injected eye) of preretinal NV ([3]; 3 mg/kg RTKi in PEG 400, p.o.): −1.4%
- Median NV (clockhour score) ([3]; 3 mg/kg RTKi in PEG 400, p.o.): 7.5
- decrease in NV (in words) ([3]; 3 mg/kg/day p.o.): did not have a significant decrease in NV
- % Inhibition (vs vehicle-injected eye) of preretinal NV ([3]; 20 mg/kg RTKi in PEG 400, p.o.): 100%
- Median NV (clockhour score) ([3]; 20 mg/kg RTKi in PEG 400, p.o.): 0
- inhibition of preretinal NV (in words) ([3]; 20 mg/kg/day p.o.): complete inhibition of preretinal NV
- effect on preretinal NV (in words, FIG. 2) ([3]; oral gavage): prevents preretinal neovascularization (NV)
- RVP in non-diabetic rats (in words) ([4]; NDM treated at 5 mg/kg/d oral gavage): unchanged
- Blood glucose levels and body weights, DM control versus DM treatment groups ([4]; oral gavage, DM rats): not different
- systemic or ERG side effects ([4]; oral, NDM and DM groups): no observed systemic or ERG side effects
- tolerability ([4]; oral, NDM and DM groups): well tolerated
- % Inhibition (vs. vehicle-injected eye) of preretinal NV ([5]; 0.1% RTKi): 37%
- efficacy against preretinal NV (in words) ([5]; 0.1% treated eyes, intravitreal): Efficacy was not observed
- Median NV (clockhour score) ([5]; 0.3% RTKi): 0
- % Inhibition (vs. vehicle-injected eye) of preretinal NV ([5]; 0.3% RTKi): 100%
- Median NV (clockhour score) ([5]; 0.6% RTKi): 0
- % Inhibition (vs. vehicle-injected eye) of preretinal NV ([5]; 0.6% RTKi): 100%
- Median NV (clockhour score) ([5]; 1% RTKi): 0
- % Inhibition (vs. vehicle-injected eye) of preretinal NV ([5]; 1% RTKi): 100%
- effect on preretinal NV (in words, FIG. 1) ([5]; single intravitreal injection): inhibits preretinal neovascularization (NV)
- difference in CNV versus vehicle injected eyes (in words) ([6]; 0.3% RTKi, 5 ul intravitreal): marginal statistical difference
- effect on laser-induced CNV (in words, FIG. 3) ([6]; single intravitreal injection): inhibits laser-induced choroidal neovascularization (CNV)
- reduction of median CNV area at 14 days compared to CNV present at 7 days post-laser ([7]; 5 μl 3% RTKi intravitreal at day 7): 41.0%
- effect on existing laser-induced CNV (in words, FIG. 4) ([7]; single intravitreal injection): induces regression of existing laser-induced choroidal neovascularization (CNV)

B1: ranibizumab (antibody, chains of the INN, looked up, V domains shown)
VH: EVQLVESGGGLVQPGGSLRLSCAASGYDFTHYGMNWVRQAPGKGLEWVGWINTYTGEPTYAADFKRRFTFSLDTSKSTAYLQMNSLRAEDTAVYYCAKYPYYYGTSHWYFDVWGQGTLVTVSS
VL: DIQLTQSPSSLSASVGDRVTITCSASQDISNYLNWYQQKPGKAPKVLIYFTSSLHSGVPSRFSGSGSGTDFTLTISSLQPEDFATYYCQQYSTVPWTFGQGTKVEIK
modifications: Fab
- patients with improved visual acuity (exudative AMD): 35-40%
